Experiments:
[1] = test system: SrSiGT8 recombinant protein; test: lignan glycosidation activity assay with purified His-SrSiGT8 recombinant protein (HPLC analysis); assay type: biochemical, Sesamum radiatum; conditions: Ni column purified, dialyzed His-SrSiGT8, UDP-glucose, 30° C. for an hour
Experimental: About 1.4 kb DNA fragment containing the full-length SrSiGT8 was excised from pSPB2656 with BamHI/KpnI and then ligated to the BamHI/KpnI site of pQE30 vector (QIAGEN), which was an expression vector for Escherichia coli, to obtain SrSiGT8/pQE30 (pSPB2657). This pSPB2657 expresses recombinant protein (His-SrSiGT8) with His tag consisting of 6 histidine residues fused to SrSiGT8 at the N terminus.
Escherichia coli transformed with pSPB2657 was incubated as in EXAMPLE 7 to express a recombinant protein. The following experiment was all carried out on ice or at 4° C., unless otherwise indicated.
After the cells were dissolved in 5 ml of lysis buffer (20 mM sodium phosphate buffer, 30 mM imidazole, 500 mM NaCl, 5 mM β-mercaptoethanol and 100 μM APSMF) per 1 g, the cells were lysed by ultrasonication, followed by centrifugation at 4000 rpm for 10 minutes. The supernatant obtained was recovered as the crude enzyme solution.
Next, the His-SrSiGT8 recombinant protein was purified through a Ni column. Chelating Sepharose FF resin (Amersham Bioscience) was packed in the column and 0.1M NiSO4 in a volume equal to the resin was added to the resin. Subsequently, the column was washed with water in a volume twice the volume of the resin and then with 20% ethanol in a volume 3 times the volume of the resin.
Then, the column was equilibrated with a lysis buffer in a volume 5 times the volume of the resin and a sample obtained by diluting 5 mL of the crude enzyme solution described above with the lysis buffer to 10-fold was loaded on the column. After the sample naturally dropped by the gravity, the sample was washed 3 times with the lysis buffer in a volume 5 times the volume of the resin and then eluted using 5 ml of an elution buffer (20 mM sodium phosphate buffer, 500 mM imidazole, 500 mM NaCl, 5 mM β-mercaptoethanol and 100 μM APSMF) […]
To 300 μl of the dialyzed sample, 20 μl of the substrate solution (1 mg/ml) and 3 μl of 20 mM UDP-glucose were added to react at 30° C. for an hour. The reaction product was analyzed in a manner similar to EXAMPLE 8.

[2] = test system: SiGT8 recombinant protein; test: lignan glycosidation activity assay with SiGT8 recombinant protein (HPLC analysis of the product); assay type: biochemical, Sesamum indicum; conditions: crude enzyme solution expressed in Escherichia coli, UDP-glucose, 30° C. for an hour, absorption at 287 nm
Experimental: (§1) Escherichia coli JM109 (TOYOBO) was transformed with Escherichia coli expression vectors pSPB2637, pSPB2642, pSPB2645, pSPB2639 and pSPB2640 prepared in EXAMPLE 6, and preincubated at 37° C. overnight in LB medium supplemented with ampicillin in final concentration of 20 μg/ml. A part of the preincubation culture was added to M9 medium (10 ml) containing 50 μg/ml of ampicillin and 0.5% Casamino acid, and shake cultured to reach A600=0.6-1.0. The composition of M9 medium is as follows: 1×M9 salt, 1 mM MgSO4, 0.2% glucose and 0.001% thiamine hydrochloride. The composition of 10×M9 medium is as follows: a 500 ml aqueous solution containing 30 g of Na2HPO4, 15 g of KH2PO4, 2.5 g of NaCl and 5 g of NH4Cl. Next, IPTG (isopropyl-β-D-thiogalactopyranoside) in a final concentration of 0.5 mM was added to the culture. After further shake culture at 30° C. overnight, centrifugation was performed at 3000 rpm at 4° C. for 10 minutes to collect the cells. […]
(§2) Pinoresinol, piperitol or sesaminol was dissolved in a small quantity of DMSO and further dissolved in 70% ethanol to prepare a substrate solution (1 mg/ml). […]
(§3) The enzyme reaction was terminated by adding 100% acetonitrile (250 μl) containing 0.1% TFA (trifluoroacetic acid) to the reaction tube. […] The resulting supernatant was washed through a filter (pore size of […], 4 mm Millex-LH, Millipore) and then analyzed using high performance liquid chromatography (hereinafter HPLC). […]
Liquid chromatography (Lc-2010c (Shimadzu Corporation)) was performed using a C-30 column (Nomura Chemical, C30-UG-5, 4.6 mm×150 mm). […] Absorption was monitored at 287 nm to detect the compound contained in a sample. The spectra between 190 nm and 400 nm for each peak of the compound were measured using SPD-10AV (Shimadzu Corporation) to detect a substance having two absorption maxima (230 nm and 280 nm) characteristic of lignans. Under the conditions, authentic pinoresinol is detected at about 8.4 minutes, authentic piperitol at about 12.8 minutes and authentic sesaminol at about 13.8 minutes (FIGS. 2 and 3).

[3] = test system: SaSiGT8 recombinant protein; test: lignan glycosidation activity assay with SaSiGT8 recombinant protein (SaLGT1) (HPLC analysis); assay type: biochemical, S. alatum; conditions: recombinant protein expressed in Escherichia coli as in EXAMPLE 11
Source text: The fragment containing ORF of SaSiGT8 was excised from pSPB2697 with BamHI and KpnI and inserted into the BamHI and KpnI sites of Escherichia coli expression vector pQE30 to give the expression vector pSPB2698. The recombinant SaSiGT8 protein (SaLGT1) was expressed as in EXAMPLE 11 to confirm that the protein had the lignan glycosidation activity. It was also confirmed by SDS-PAGE that the recombinant SaSiGT8 protein (ca. 60 kDa) was present in the lysis supernatant of transgenic Escherichia coli expressing the SaSiGT8 gene (FIG. 9).

[4] = test system: SiGT10 recombinant protein; test: lignan glycosidation activity assay with SiGT10 recombinant protein (HPLC analysis of the product); assay type: biochemical, Sesamum indicum; conditions: crude enzyme solution expressed in Escherichia coli, UDP-glucose, 30° C. for an hour, absorption at 287 nm
Experimental: as §1, with “NH4Cl.” for “NH4Cl. Next, IPTG (isopropyl-β-D-thiogalactopyranoside) in a final concentration of 0.5 mM was added to the culture. After further shake culture at 30° C. overnight, centrifugation was performed at 3000 rpm at 4° C. for 10 minutes to collect the cells.”
as §2, §3
Liquid chromatography (Lc-2010c (Shimadzu Corporation)) was performed using a C-30 column (Nomura Chemical, C30-UG-5, 4.6 mm×150 mm). […] Absorption was monitored at 287 nm to detect the compound contained in a sample. […]

Compound | glycosidation of the lignan substrate by SrSiGT8 (new product peak with lignan spectrum in HPLC) [1] | glycosidation of the lignan substrate by SiGT8 (new product peak with lignan spectrum in HPLC) [2] | glycosidation of the lignan substrate by SaSiGT8 (monoglucoside formed, HPLC) [3] | glycosidation of the lignan substrate by SiGT10 (new product peak with lignan spectrum in HPLC) [4]
COc1cc([C@@H]2OC[C@@H]3[C@H]2CO[C@H]3c2ccc3c(c2)OCO3)ccc1O [piperitol] | peak E having a new spectrum for lignan showing the retention time of about 7.4 minutes was detected | peak D having the spectrum of lignan (retention time of about 7.4 minutes) was newly obtained | produced the respective monoglucosides | –
Oc1cc2c(cc1[C@H]1OC[C@H]3[C@@H]1CO[C@@H]3c1ccc3c(c1)OCO3)OCO2 [sesaminol] | peak F having a new spectrum for lignan showing the retention time of about 8.2 minutes was detected | peak B having the spectrum of lignan (retention time of about 8.2 minutes) was newly obtained | produced the respective monoglucosides | peak C having the spectrum of lignan (retention time of about 8.2 minutes) was newly obtained
pinoresinol | any peak with a spectrum for any new lignan was detected | peak A having the spectrum of lignan (retention time of about 4.0 minutes) was newly obtained | produced the respective monoglucosides | any new product was not observed

Source: patent US20080293099A1, “Lignan Glycosidase and Utilization of the Same” (priority 2004, published 2008)
